The structures appear in SMILES notation. Read-outs that look alike come from different tables or passages of the source. Where only a bound is given, the exact number is not on record here.

Data set [1] can be described thus: In vitro cytotoxicity assay. Type of data set: cell-based, rat. The note with it: rat.
The test system of data set [2] is Plasmodium falciparum (K1, resistant to chloroquine). Put plainly: In vitro growth inhibition assay of P. falciparum. Type of data set: cell-based. Particulars: for IC50: Plasmodium falciparum.
Data set [3] relates to L6 rat myoblast cells. The experiment in a line: In vitro cytotoxicity assay. Type of data set: cell-based. The note with it: L6 cells; relative to 5,5′-disubstituted analogue 1.
For data set [4], the system named is T. brucei rhodesiense STIB900. Type of data set: in vivo, mice. Particulars: number of mice that survive and are parasite free for 60 days.
In data set [5] the test system is Trypanosoma brucei rhodesiense (STIB900). The experiment in a line: In vitro growth inhibition assay of T. brucei rhodesiense. Type of data set: cell-based.
Data set [6] deals with Leishmania donovani (MHOM/SD/62/1S-CL2D) axenic amastigotes. Put plainly: Antileishmanial assay. Type of data set: cell-based. Particulars: in vitro, axenic amastigotes.
Data set [7] relates to P. berghei. Particulars: mice; cited from earlier work.
The test system of data set [8] is P. berghei. Put plainly: P. berghei mouse model. Type of data set: in vivo. Particulars: subcutaneously at 30 mg/kg daily for four days; data not shown.
The mark [9] stands for this setting: K1, read-out: antiplasmodial IC50, P. falciparum, in vitro.

`Nc1nc(N)nc(Nc2ccc([As]3SCC(CO)S3)cc2)n1` (stereo not shown) [melarsoprol] gave an IC50 at 70 h in data set [1] of 7.78 µM.
Same read-out and setting: next, `COc1cc([C@@H]2c3cc4c(cc3[C@H](O)[C@H]3COC(=O)[C@H]23)OCO4)cc(OC)c1OC` [podophyllotoxin]: 0.02 µM.
In data set [1], `C[C@@H]1CC[C@H]2[C@@H](C)C(=O)O[C@@H]3O[C@@]4(C)CC[C@@H]1[C@]32OO4` [artemisinin, reference compound] showed an IC50 at 70 h of 450 µM. Moreover, in data set [2] (ratio IC50 (L6)/IC50 (P. falciparum)), the “SIP, selectivity index for P. falciparum” value is recorded as 75000.
Compound `CCN(CC)CCCC(C)Nc1ccnc2cc(Cl)ccc12` (stereo not shown) [chloroquine, reference compound] returned an IC50 at 70 h in data set [1] of 117 µM. Also, in data set [2] (K1, read-out: P. falciparum IC50), the IC50 is 0.124 µM.
Compound `Cl.Cl.N=C(N)c1ccc(-c2cn(-c3ccc(C(=N)N)cc3)nn2)cc1` [Compound 46, 1,4-Bis(4-amidinophenyl)-1H-1,2,3-triazole Dihydrochloride] gave a fold increased cytotoxicity in data set [3] of roughly 25 fold. Moreover, the concentration for half-maximal inhibition (IC50) in data set [2] (setting [9]) was less than 0.058 µM. Moreover, the cures entry in data set [4] (4 × 0.5 mg/kg ip) is “no cures”.
Consider `COc1ccc(C2=NCCN2)cc1-c1cn(-c2cccc(C3=NCCN3)c2)nn1.Cl.Cl` [Compound 9, 4-[5-(4,5-Dihydro-1H-imidazol-2-yl)-2-methoxyphenyl]-1-[3-(4,5-dihydro-1H-imidazol-2-yl)phenyl]-1H-1,2,3-triazole Dihydrochloride], for which, in data set [5] (ratio IC50 (L6)/IC50 (T. brucei rhodesiense)), the “SIT, selectivity index for T. brucei rhodesiense” value was greater than 29333. The “times as active against T. brucei rhodesiense” value in data set [5] (relative to unsubstituted analogue 3) is roughly 2350 times. Moreover, the IC50 in data set [2] (setting [9]) is less than 0.058 µM. The “fold more active against P. falciparum” value in data set [2] (relative to diimidazoline 3) was found to be 26 fold. In addition, the “activity against L. donovani (in words)” value in data set [6] was “active”. The cures entry in data set [4] (4 × 1 mg/kg ip) is on record as “no cures”.
With `N=C(N)c1ccc(-c2ccc(-c3ccc(C(=N)N)cc3)o2)cc1` [furamidine, 2,5-bis(4-amidinophenyl)furan], the “activity against trophozoite-induced P. berghei infection” value in data set [7] was “inactive”.
On to `Cl.Cl.Oc1cc(C2=NCCN2)ccc1-c1cn(-c2ccc(C3=NCCN3)cc2)nn1` [Compound 60, 4-[4-(4,5-Dihydro-1H-imidazol-2-yl)-2-hydroxyphenyl]-1-[4-(4,5-dihydro-1H-imidazol-2-yl)phenyl]-1H-1,2,3-triazole Dihydrochloride], for which the “times as active against P. falciparum” value in data set [2] (relative to diimidazoline 48) turned out to be 3 times. Besides, the “times greater antiplasmodial selectivity index SIP” value in data set [2] (relative to pentamidine) is recorded as roughly 400 times. Further, the “effect on blood parasite count” value in data set [8] was “did not reduce the blood parasite count”.
Compound `Cl.Cl.N=C(N)c1ccc(-n2cc(-c3cccc(C(=N)N)c3)nn2)cc1` [Compound 16, 1-(4-Amidinophenyl)-4-(3-amidinophenyl)-1H-1,2,3-triazole Dihydrochloride] came in with a fold increased cytotoxicity in data set [3] of roughly 25 fold. Also, the “activity against L. donovani (in words)” value in data set [6] is “active”. The cures entry in data set [4] (4 × 5 mg/kg ip) is “curing one out of four mice”.

Values taken from article PMC3113660 (Journal of medicinal chemistry, 2010).
